Experimental data reported in patent publication US20230233615A1, “PHARMACEUTICAL COMPOSITION FOR TREATING ALZHEIMER'S DISEASE” (Gwo Xi Stem Cell Applied Technology Co., Ltd., priority 2022, published 2023).

Key:
IL-1β = assay: Inhibition on NLRP3 by EVs, IL-1β in BV2 microglia cell line; type: cell-based; conditions: BV2 cells, LPS + ATP, 48 hours, 100 mM of mefenamic acid
Procedure: (§1) In order to investigate anti-inflammatory and NLR family pyrindomain containing 3 (NLRP3) inflammasome inhibitory effects of ADSC-derived EVs, a study was performed using a BV2 microglia cell line (hereinafter referred to as BV2 cells). BV2 cells were initiated with 100 ng/ml of LPS and 5 mM of ATP, and 100 mM of mefenamic acid (a positive control group) or a low dose of ADSC-derived EVs (2×10^5 particles/cell) or a high dose of ADSC-derived EVs (2×10^6 particles/cell) in a humidified environment with 5%CO2 at 37° C. for 48 hours.

IL-18 = assay: Inhibition on NLRP3 by EVs, IL-18 in BV2 microglia cell line; type: cell-based; conditions: BV2 cells, LPS + ATP, 48 hours, 100 mM of mefenamic acid
Procedure: as §1

SMILES: Cc1cccc(Nc2ccccc2C(=O)O)c1C [mefenamic acid]
- inhibited expression of IL-1β (compared to PBS group) (IL-1β; first stated set): 35.4%
- inhibited expression of IL-1β (compared to PBS group) (IL-1β; second stated set): 69.5%
- inhibited expression of IL-18 (compared to PBS group) (IL-18; first stated set): 29.2%
- expression of IL-18 (compared to PBS group) (IL-18; second stated set): no significant change
